Data as given in patent US5656591A, “Antimicrobial agents and method for treating products therewith” (Morinaga Milk Industry Co., Ltd., priority 1992, dated 1997).

Legend:
[1] = system: Escherichia coli 0-111; test: Test for antimicrobial activity (turbidity): growth inhibiting concentration of antibiotics; type: cell-based
Protocol: (§1) Precultures of test microorganisms to be used in the tests described hereunder were prepared in such a manner that: from the frozen preservation of dispersions of test microorganisms, a loop of the respective strains of the microorganisms were taken out and spread onto TRI PETIT CASE SOYA AGAR MEDIA (by BBL Company), and incubated at 37° C. for 16 hours; the colonies grown on the culture media were scraped by a platinum loop and cultivated in 2.1% Mueller-Hington Broth (by Difco Company) respectively for several hours at 37° C. The resultant microbial cultures at logarithmic phase in 3×10^8 /ml of microbial concentration were used as the precultures.
(§2) The test media to be used in the respective tests were prepared in such a manner that: aqueous solutions in a predetermined concentration of the lactoferrin hydrolysates or the lactoferrin-derived antimicrobial peptides of (1) and (2) in Preparation of Samples (supra), as well as the samples of antibiotics of (3) (supra) were respectively sterilized with filters (by Advantec Company); then a quantity of the resultant solutions of respective samples were selectively added to a quantity of basal medium (Mueller-Hington Broth) prepared in the eventual concentration of 2.1%, thereby combinations of the samples and their concentrations in the respective test media were adjusted as specified in the respective tests.
(§3) Antimicrobial activity was examined as follows: A quantity of the respective precultures prepared in (1) immediately above was diluted with 2.1% Mueller-Hington Broth to result in 2×10^6 /ml of microbial concentration; 100 μl aliquots of the resultant liquid were added to 100 μl aliquots of one of the test media as specified in the respective test; the resultant media were incubated at 37° C. for 16 hours; then the turbidity of the resultant culture broths were measured thereby antimicrobial activity was examined.
(§4) Components in the test and control media and eventual concentrations thereof were adjusted by properly combining 0 mg, 0.4 mg, 1.6 mg and 6.4 mg/ml of lactoferrin hydrolysate of (1) (in Preparation of Samples, supra). or 0 μg, 16 μg, 64 μg, and 256 μg/ml of lactoferrin-derived antimicrobial peptides of (2) (in Preparation of Samples, supra), and 0 μg, 0.01 μg, 0.1 μg, 1 μg, and 10 μg/ml of antibiotics of (3) (supra), then antimicrobial activity of the combined use of the components against Escherichia coli 0-111 and Staphylococcus aureus (JCM2151) as well as growth inhibiting concentrations of the antibiotics were investigated.

[2] = system: Staphylococcus aureus JCM2151; test: as above; type: cell-based; conditions: for MIC: Staphylococcus aureus
Protocol: as §1, §2, §3, §4

[3] = Escherichia coli, 0111, antimicrobial peptide (Seq. ID No. 27) 0 μg/ml
[4] = Escherichia coli, 0111, antimicrobial peptide (Seq. ID No. 27) 16 μg/ml
[5] = Escherichia coli, 0111, antimicrobial peptide (Seq. ID No. 27) 64 μg/ml
[6] = Escherichia coli, 0111, antimicrobial peptide (Seq. ID No. 27) 256 μg/ml
[7] = lactoferrin hydrolysate 0 mg/ml
[8] = lactoferrin hydrolysate 0.4 mg/ml
[9] = lactoferrin hydrolysate 1.6 mg/ml
[10] = lactoferrin hydrolysate 6.4 mg/ml
[11] = JCM2151, antimicrobial peptide (Seq. ID No. 27) 0 μg/ml
[12] = JCM2151, antimicrobial peptide (Seq. ID No. 27) 16 μg/ml
[13] = JCM2151, antimicrobial peptide (Seq. ID No. 27) 64 μg/ml
[14] = JCM2151, antimicrobial peptide (Seq. ID No. 27) 256 μg/ml
[15] = antimicrobial peptide (Seq. ID No. 27) 0 μg/ml
[16] = antimicrobial peptide (Seq. ID No. 27) 16 μg/ml
[17] = antimicrobial peptide (Seq. ID No. 27) 64 μg/ml
[18] = antimicrobial peptide (Seq. ID No. 27) 256 μg/ml

Row | Compound | MIC [1, 3] [µg/mL] | MIC [1, 4] [µg/mL] | MIC [1, 5] [µg/mL] | MIC [1, 6] [µg/mL] | Growth inhibiting Concentration of antibiotics [1, 7] [µg/mL] | Growth inhibiting Concentration of antibiotics [1, 8] [µg/mL] | Growth inhibiting Concentration of antibiotics [1, 9] [µg/mL] | Growth inhibiting Concentration of antibiotics [1, 10] [µg/mL] | MIC [2, 11] [µg/mL] | MIC [2, 12] [µg/mL] | MIC [2, 13] [µg/mL] | MIC [2, 14] [µg/mL] | Growth inhibiting Concentration of antibiotics [2, 7] [µg/mL] | Growth inhibiting Concentration of antibiotics [2, 8] [µg/mL] | Growth inhibiting Concentration of antibiotics [2, 9] [µg/mL] | Growth inhibiting Concentration of antibiotics [2, 10] [µg/mL] | Growth inhibiting Concentration of antibiotics [1, 15] [µg/mL] | Growth inhibiting Concentration of antibiotics [1, 16] [µg/mL] | Growth inhibiting Concentration of antibiotics [1, 17] [µg/mL] | Growth inhibiting Concentration of antibiotics [1, 18] [µg/mL] | other results
1 | O=C(N[C@H](CO)[C@H](O)c1ccc([N+](=O)[O-])cc1)C(Cl)Cl [chloramphenicol] | > 1 | > 1 | 1 | 0.1 | > 1 | > 1 | > 1 | 0.1 | > 1 | > 1 | 1 | 1 | > 1 | > 1 | > 1 | 1 |  |  |  |  | 
2 | gentamicin |  |  |  |  | 1 | 1 | 0.1 | 0.1 |  |  |  |  | 1 | 0.1 | 0.1 | 0.1 | 1 | 1 | 0.1 | 0.1 | Growth inhibiting Concentration of antibiotics [2, 15]: 1 µg/mL; Growth inhibiting Concentration of antibiotics [2, 16]: 0.1 µg/mL; Growth inhibiting Concentration of antibiotics [2, 17]: 0.1 µg/mL; Growth inhibiting Concentration of antibiotics [2, 18]: 0.1 µg/mL
3 | CN(C)[C@@H]1C(=O)C(C(N)=O)=C(O)[C@@]2(O)C(=O)C3=C(O)c4c(O)cccc4C(C)(O)[C@H]3C[C@@H]12 (stereo partly shown) [hostacyclin] |  |  |  |  | 1 | 1 | 1 | 0.1 |  |  |  |  | 1 | 1 | 1 | 0.1 | 1 | 1 | 1 | 0.1 | Growth inhibiting Concentration of antibiotics [2, 15]: 1 µg/mL; Growth inhibiting Concentration of antibiotics [2, 16]: 1 µg/mL; Growth inhibiting Concentration of antibiotics [2, 17]: 1 µg/mL; Growth inhibiting Concentration of antibiotics [2, 18]: 0.1 µg/mL
4 | CC[C@H]1OC(=O)[C@H](C)[C@@H](O[C@H]2C[C@@](C)(OC)[C@@H](O)[C@H](C)O2)[C@H](C)[C@@H](O[C@@H]2O[C@H](C)C[C@H](N(C)C)[C@H]2O)[C@](C)(O)C[C@@H](C)C(=O)[C@H](C)[C@@H](O)[C@]1(C)O [erythromycin] | > 1 | 1 | 1 | 0.01 | > 1 | 1 | 1 | 0.1 | > 1 | 1 | 1 | 0.01 | > 1 | 1 | 1 | 0.01 |  |  |  |  | 
